Patent US20250145665A1, “MACROCYCLIC PEPTIDES USEFUL AS MODULATORS OF TNF ALPHA” (Bristol-Myers Squibb Company, priority 2023, published 2025)
pIC50: −log10 of the molar value. Starred links: 1 amine or outer side, 2 acyl side, 3 side chain; linkers in the order of their positions; H or OH if unused. Positions of bridges follow the written chain, without caps; N, C: chain ends. Non-standard residues stand in square brackets, D forms with d. Residues, ends and D or L forms follow the SMILES beside them. *: point of attachment. Bip(4'-(3-HOOC-benzamido)) = N[C@@H](Cc1ccc(-c2ccc(NC(=O)c3cccc(C(=O)O)c3)cc2)cc1)C(=O)O; X5 = Cn1nc(C(=O)Nc2ccc(-c3ccc(C[C@H](N[*:1])C(=O)[*:2])cc3)cc2)c2ccccc21; X22 = O=C(O)COc1cccc(C(=O)N[C@@H](Cc2cn(CC(=O)O)c3ccccc23)C(=O)*)c1; Bip(4'-NH) = O=C([C@H](Cc1ccc(-c2ccc(N[*:3])cc2)cc1)N[*:1])[*:2]; Bip(4'-CONHMe) = CNC(=O)c1ccc(-c2ccc(C[C@H](N)C(=O)O)cc2)cc1; Indazole3carbonyl(1-CH2COOH) = O=C(O)Cn1nc(C(=O)*)c2ccccc21; Bip(4'-COOH) = N[C@@H](Cc1ccc(-c2ccc(C(=O)O)cc2)cc1)C(=O)O; Bip(4'-NHAc) = CC(=O)Nc1ccc(-c2ccc(C[C@H](N)C(=O)O)cc2)cc1; X76 = O=C(O)CCC(=O)N[C@@H](Cc1cn(CC(=O)O)c2ccccc12)C(=O)*; X30 = N#Cc1ccc(CCNC(=N)NCCC[C@@H](N[*:1])C(=O)[*:2])cc1; Ala(imidazol-2-yl) = N[C@@H](Cc1ncc[nH]1)C(=O)O; dArg(ω-Bn) = N=C(NCCC[C@@H](N)C(=O)O)NCc1ccccc1; Ala(morpholin-4-yl) = N[C@@H](CN1CCOCC1)C(=O)O; Benzoyl(3-OCH2COOH) = O=C(O)COc1cccc(C(=O)*)c1; Phe(4-CH2NH2) = NCc1ccc(C[C@H](N)C(=O)O)cc1; Bip = N[C@@H](Cc1ccc(-c2ccccc2)cc1)C(=O)O; Tiq1c(1S) = O=C(O)[C@H]1NCCc2ccccc21; Tic = O=C(O)[C@@H]1Cc2ccccc2CN1; 2Thi = N[C@@H](Cc1cccs1)C(=O)O; Cha = N[C@@H](CC1CCCCC1)C(=O)O; Chg = N[C@H](C(=O)O)C1CCCCC1; Aze = O=C(O)[C@@H]1CCN1; Sar = CNCC(=O)O

biological target: TNFα (Homo sapiens, UniProt P01375); assay: TNF-Induced HEK-Blue Assay; type: cell-based; conditions: not given
Sequence (P01375 77-233 limits assumed): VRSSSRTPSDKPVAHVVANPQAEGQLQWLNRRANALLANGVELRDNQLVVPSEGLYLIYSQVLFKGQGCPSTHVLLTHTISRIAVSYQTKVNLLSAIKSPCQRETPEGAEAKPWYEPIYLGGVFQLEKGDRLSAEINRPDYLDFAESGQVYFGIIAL

SMILES	pIC50
CNC(=O)c1ccc(-c2ccc(C[C@@H]3NC(=O)[C@H](CN4CCOCC4)NC(=O)CSC[C@@H](C(=O)NCC(N)=O)NC(=O)[C@H](CC(C)C)NC(=O)[C@H](CCCNC(=N)N)NC(=O)[C@H](C(C)C)NC(=O)[C@@H]4CCCN4C(=O)[C@H](C(C)C)NC(=O)[C@@H](CCCNC(=N)NCCc4ccc(C#N)cc4)NC(=O)[C@H](CC(=O)O)NC(=O)[C@@H]4CCCN4C(=O)CN(C)C(=O)[C@H](Cc4ccc(-c5ccc(NC(=O)c6nn(CC(=O)O)c7ccccc67)cc5)cc4)NC3=O)cc2)cc1 [Example 430] ({CH2CO}-[Ala(morpholin-4-yl)][Bip(4'-CONHMe)][Bip(4'-NH)](Indazole3carbonyl(1-CH2COOH))[Sar]PD[X30]VPVRLCG-NH2; thioether N-13)	> 7.30
CC(C)C[C@@H]1NC(=O)[C@H](CCCNC(=N)N)NC(=O)[C@H](C(C)C)NC(=O)[C@@H]2CCCN2C(=O)[C@H](C(C)C)NC(=O)[C@@H](CCCNC(=N)NCc2ccccc2)NC(=O)[C@H](CC(=O)O)NC(=O)[C@@H]2CCCN2C(=O)CN(C)C(=O)[C@H](Cc2ccc(-c3ccc(NC(=O)c4nn(CC(=O)O)c5ccccc45)cc3)cc2)NC(=O)[C@H](Cc2ccc(-c3ccccc3)cc2)NC(=O)[C@H](CN2CCOCC2)NC(=O)CSC[C@@H](C(=O)NCC(N)=O)NC1=O [Example 467] ({CH2CO}-[Ala(morpholin-4-yl)][Bip][Bip(4'-NH)](Indazole3carbonyl(1-CH2COOH))[Sar]PD[dArg(ω-Bn)]VPVRLCG-NH2; thioether N-13)	> 7.30

same assay, conditions: HEK-Blue-CD40L cells, NF-kB-driven secreted alkaline phosphatase reporter; TNFα 0.5 ng/ml; 18 h; read-out: TNF induced HEK-Blue assay IC50 value

SMILES	pIC50
CC(C)C[C@@H]1NC(=O)[C@H](CCCNC(=N)N)NC(=O)[C@H](C(C)C)NC(=O)[C@@H]2CCCN2C(=O)[C@H](Cc2ccc(CN)cc2)NC(=O)[C@H](CCCNC(=N)N)NC(=O)[C@H](CC(=O)O)NC(=O)[C@@H]2CCCN2C(=O)CN(C)C(=O)[C@H](Cc2ccc(-c3ccccc3)cc2)NC(=O)[C@H](Cc2ccc(-c3ccccc3)cc2)NC(=O)[C@H](CN2CCOCC2)NC(=O)CSC[C@@H](C(=O)NCC(N)=O)NC1=O [Example 51] ({CH2CO}-[Ala(morpholin-4-yl)][Bip][Bip][Sar]PDR[Phe(4-CH2NH2)]PVRLCG-NH2; thioether N-13)	5.70 to 6.70
CC(C)C[C@@H]1NC(=O)[C@H](CCCNC(=N)N)NC(=O)[C@H](C(C)C)NC(=O)[C@@H]2CCCN2C(=O)[C@H](C(C)C)NC(=O)[C@@H](CCCNC(=N)NCc2ccccc2)NC(=O)[C@H](CC(=O)O)NC(=O)[C@@H]2CCCN2C(=O)CN(C)C(=O)[C@H](Cc2ccc(-c3ccc(NC(=O)c4nn(C)c5ccccc45)cc3)cc2)NC(=O)[C@H](Cc2ccc(-c3ccccc3)cc2)NC(=O)[C@H](CN2CCOCC2)NC(=O)CSC[C@@H](C(=O)NCC(N)=O)NC1=O [Example 471] ({CH2CO}-[Ala(morpholin-4-yl)][Bip][X5][Sar]PD[dArg(ω-Bn)]VPVRLCG-NH2; thioether N-13)	> 7.30
CC(=O)Nc1ccc(-c2ccc(C[C@@H]3NC(=O)[C@H](Cc4ccc(-c5ccccc5)cc4)NC(=O)[C@H](CC4CCCCC4)NC(=O)CSC[C@@H](C(=O)N[C@@H](CCC(=O)O)C(N)=O)NC(=O)[C@H](CC(C)C)NC(=O)[C@H](Cc4cnc[nH]4)NC(=O)[C@H](C(C)C)NC(=O)[C@@H]4CCCN4C(=O)[C@H](C(C)C)NC(=O)[C@@H](CCCNC(=N)N)NC(=O)[C@H](CC(=O)O)NC(=O)[C@H](Cc4ccc(O)cc4)NC(=O)CN(C)C3=O)cc2)cc1 [Example 249] ({CH2CO}-[Cha][Bip][Bip(4'-NHAc)][Sar]YD[dR]VPVHLCE-NH2; thioether N-13)	6.70 to 7.30
CC(C)C[C@@H]1NC(=O)[C@H](CCCNC(=N)N)NC(=O)[C@H](C(C)C)NC(=O)[C@@H]2CCCN2C(=O)[C@H](C(C)C)NC(=O)[C@H](CCCNC(=N)N)NC(=O)[C@H](CC(=O)O)NC(=O)[C@@H]2CCCN2C(=O)CN(C)C(=O)[C@H](Cc2ccc(-c3ccccc3)cc2)NC(=O)[C@H](Cc2ccc(-c3ccccc3)cc2)NC(=O)[C@H](Cc2ccccc2)NC(=O)CSC[C@@H](C(=O)NCC(N)=O)NC1=O [Example 1] ({CH2CO}-F[Bip][Bip][Sar]PDRVPVRLCG-NH2; thioether N-13)	5.70 to 6.70
CC[C@H](C)[C@@H]1NC(=O)[C@@H](CCCNC(=N)N)NC(=O)[C@H](CC(=O)O)NC(=O)[C@H](Cc2cnc[nH]2)NC(=O)CN(C)C(=O)[C@H](Cc2ccc(-c3ccc(NC(=O)[C@H](Cc4cn(CC(=O)O)c5ccccc45)NC(=O)c4cccc(OCC(=O)O)c4)cc3)cc2)NC(=O)[C@H](Cc2ccc(-c3ccccc3)cc2)NC(=O)[C@H](CC2CCCCC2)NC(=O)CSC[C@@H](C(=O)NCC(N)=O)NC(=O)[C@H](CC(C)C)NC(=O)[C@H](Cc2ncc[nH]2)NC(=O)[C@H](C(C)C)NC(=O)[C@@H]2CCCN2C1=O [Example 414] ({CH2CO}-[Cha][Bip][Bip(4'-NH)](X22)[Sar]HD[dR]IPV[Ala(imidazol-2-yl)]LCG-NH2; thioether N-13)	6.70 to 7.30
CC[C@H](C)[C@@H]1NC(=O)[C@@H](CCCNC(=N)N)NC(=O)[C@H](CC(=O)O)NC(=O)[C@H](Cc2cnc[nH]2)NC(=O)CN(C)C(=O)[C@H](Cc2ccc(-c3ccc(NC(=O)[C@H](Cc4cn(CC(=O)O)c5ccccc45)NC(=O)CCC(=O)O)cc3)cc2)NC(=O)[C@H](Cc2ccc(-c3ccccc3)cc2)NC(=O)[C@H](CC2CCCCC2)NC(=O)CSC[C@@H](C(=O)NCC(N)=O)NC(=O)[C@H](CC(C)C)NC(=O)[C@H](Cc2ncc[nH]2)NC(=O)[C@H](C(C)C)NC(=O)[C@@H]2CCCN2C1=O [Example 413] ({CH2CO}-[Cha][Bip][Bip(4'-NH)](X76)[Sar]HD[dR]IPV[Ala(imidazol-2-yl)]LCG-NH2; thioether N-13)	5.70 to 6.70
CC[C@H](C)[C@@H]1NC(=O)[C@@H]2CCCN2C(=O)[C@H]([C@@H](C)CC)NC(=O)[C@@H](CCCNC(=N)N)NC(=O)[C@H](CC(=O)O)NC(=O)[C@H](Cc2ccc(O)cc2)NC(=O)CN(C)C(=O)[C@H](Cc2ccc(-c3ccc(NC(C)=O)cc3)cc2)NC(=O)[C@H](Cc2ccc(-c3ccccc3)cc2)NC(=O)[C@H](CN2CCOCC2)NC(=O)CSC[C@@H](C(=O)NCC(N)=O)NC(=O)[C@H](CC(C)C)NC(=O)[C@H](Cc2cccs2)NC1=O [Example 293] ({CH2CO}-[Ala(morpholin-4-yl)][Bip][Bip(4'-NHAc)][Sar]YD[dR]IPI[2Thi]LCG-NH2; thioether N-13)	> 7.30
CC(C)C[C@@H]1NC(=O)[C@H](Cc2ccc(O)cc2)NC(=O)[C@H](C(C)C)NC(=O)[C@@H]2Cc3ccccc3CN2C(=O)[C@H](CC(N)=O)NC(=O)[C@@H](CCCNC(=N)N)NC(=O)[C@H](CC(=O)O)NC(=O)[C@H](Cc2ccc(O)cc2)NC(=O)CN(C)C(=O)[C@H](Cc2ccc(-c3ccccc3)cc2)NC(=O)[C@H](Cc2ccc(-c3ccc(C(=O)O)cc3)cc2)NC(=O)[C@H](CN2CCOCC2)NC(=O)CSC[C@@H](C(=O)NCC(N)=O)NC1=O [Example 146] ({CH2CO}-[Ala(morpholin-4-yl)][Bip(4'-COOH)][Bip][Sar]YD[dR]N[Tic]VYLCG-NH2; thioether N-13)	> 7.30
CC[C@H](C)[C@@H]1NC(=O)[C@@H](CCCNC(=N)N)NC(=O)[C@H](CC(=O)O)NC(=O)[C@H](Cc2cnc[nH]2)NC(=O)CN(C)C(=O)[C@H](Cc2ccc(-c3ccc(NC(=O)c4cccc(C(=O)O)c4)cc3)cc2)NC(=O)[C@H](Cc2ccc(-c3ccc(C(=O)O)cc3)cc2)NC(=O)[C@H](CC2CCCCC2)NC(=O)CSC[C@@H](C(=O)NCC(N)=O)NC(=O)[C@H](CC(C)C)NC(=O)[C@H](Cc2cnc[nH]2)NC(=O)[C@H](C(C)C)NC(=O)[C@@H]2c3ccccc3CCN2C1=O [Example 374] ({CH2CO}-[Cha][Bip(4'-COOH)][Bip(4'-(3-HOOC-benzamido))][Sar]HD[dR]I[Tiq1c(1S)]VHLCG-NH2; thioether N-13)	> 7.30
CC[C@H](C)[C@@H]1NC(=O)[C@@H](CCCNC(=N)N)NC(=O)[C@H](CC(=O)O)NC(=O)[C@H](Cc2cnc[nH]2)NC(=O)CN(C)C(=O)[C@H](Cc2ccc(-c3ccc(NC(=O)c4nn(C)c5ccccc45)cc3)cc2)NC(=O)[C@H](Cc2ccc(-c3ccc(C(=O)O)cc3)cc2)NC(=O)[C@H](CC2CCCCC2)NC(=O)CSC[C@@H](C(=O)NCC(N)=O)NC(=O)[C@H](CC(C)C)NC(=O)[C@H](Cc2cnc[nH]2)NC(=O)[C@H](C(C)C)NC(=O)[C@@H]2Cc3ccccc3CN2C1=O [Example 336] ({CH2CO}-[Cha][Bip(4'-COOH)][X5][Sar]HD[dR]I[Tic]VHLCG-NH2; thioether N-13)	> 7.30
CC(=O)Nc1ccc(-c2ccc(C[C@@H]3NC(=O)[C@H](Cc4ccc(-c5ccc(C(=O)O)cc5)cc4)NC(=O)[C@H](CC4CCCCC4)NC(=O)CSC[C@@H](C(=O)NCC(N)=O)NC(=O)[C@H](CC(C)C)NC(=O)[C@H](Cc4cnc[nH]4)NC(=O)[C@H](C4CCCCC4)NC(=O)[C@@H]4CCN4C(=O)[C@H](C(C)C)NC(=O)[C@@H](CCCNC(=N)N)NC(=O)[C@H](CC(=O)O)NC(=O)[C@H](Cc4cnc[nH]4)NC(=O)CN(C)C3=O)cc2)cc1 [Example 272] ({CH2CO}-[Cha][Bip(4'-COOH)][Bip(4'-NHAc)][Sar]HD[dR]V[Aze][Chg]HLCG-NH2; thioether N-13)	6.70 to 7.30
CC[C@H](C)[C@@H]1NC(=O)[C@@H](CCCNC(=N)N)NC(=O)[C@H](CC(=O)O)NC(=O)[C@@H]2CCCN2C(=O)CN(C)C(=O)[C@H](Cc2ccc(-c3ccc(NC(=O)c4cccc(OCC(=O)O)c4)cc3)cc2)NC(=O)[C@H](Cc2ccc(-c3ccccc3)cc2)NC(=O)[C@H](CC2CCCCC2)NC(=O)CSC[C@@H](C(=O)NCC(N)=O)NC(=O)[C@H](CC(C)C)NC(=O)[C@H](Cc2cnc[nH]2)NC(=O)[C@H](C(C)C)NC(=O)[C@@H]2CCCN2C1=O [Example 442] ({CH2CO}-[Cha][Bip][Bip(4'-NH)](Benzoyl(3-OCH2COOH))[Sar]PD[dR]IPVHLCG-NH2; thioether N-13)	6.70 to 7.30
CC(=O)Nc1ccc(-c2ccc(C[C@@H]3NC(=O)[C@H](Cc4ccc(-c5ccccc5)cc4)NC(=O)[C@H](CN4CCOCC4)NC(=O)CSC[C@@H](C(=O)NCC(N)=O)NC(=O)[C@H](CC(C)C)NC(=O)[C@H](Cc4ccc(O)cc4)NC(=O)[C@H](C(C)C)NC(=O)[C@@H]4CCCN4C(=O)[C@H](C(C)C)NC(=O)[C@H](CCCNC(=N)N)NC(=O)[C@H](CC(=O)O)NC(=O)[C@@H]4CCCN4C(=O)CN(C)C3=O)cc2)cc1 [Example 196] ({CH2CO}-[Ala(morpholin-4-yl)][Bip][Bip(4'-NHAc)][Sar]PDRVPVYLCG-NH2; thioether N-13)	> 7.30
